The record followed here is patent publication US3946000A, “7-[α-(2-Aminomethyl-1-cyclohexenyl)-acetamido]-3-heterocyclic thiomethyl-3-cephem-4-carboxylic acids” (Bristol-Myers Company, priority 1973, dated 1976).

In brackets after ≈: the same amount, converted by molar mass. Where two headings read alike, the source gives them in different places.

The nature of series [1]: Solubility in 0.1 M pH 7.0 phosphate buffer (bioassay and UV-assay). It is filed as physicochemical. The conditions noted are these: for solubility at 4 h: 0.1 m phosphate buffer, pH 7, aqueous buffer. How it is done: *Stirred at 25° C. for 4 hours in 0.1 M pH 7.0 phosphate
buffer--filtered through Milipore filter (0.45 μ)--assayed
spectroscopically against its own standard.
The test solution and the standard solution are prepared as described below.
About 10 mg. (1) of a sample is placed in a vial and mixed with 1 ml. of 0.1 M phosphate buffer (pH 7.0). The vial is stoppered, sealed with a metal cap, placed on a rotary shaker and agitated at 160 rpm for 4 hr. at 25° C. The solution is filtered through a Millipore filter (HAWP 01300, mean pore size 0.45 μm). The filtrate is diluted to use for bioassay and UV assay as follows:
About 2 mg. of the same sample is weighed precisely and dissolved in 4 ml. of 1% K2 CO3 solution^(3) (usually within one minute). The solution is diluted exactly to 50 ml. in a flask with 0.1 M pH 7.0 phosphate buffer and used for the preparation of the standard solutions for bioassay and UV-assay as follows:
(1) A 20 mg. or more sample is used when the sample is expected to be more soluble.
(2) 0.1 M pH 7.0 phosphate buffer is used as a diluent in the present test and also as a reference solution in UV-assay.
(3) It was previously confirmed that almost the same result is obtained when the sample is solubilized in DMSO (dimethylsulfoxide) and then diluted similarily with the buffer.
(4) Volume of the solution is measured precisely with an appropriate pipette or flask.
BA: Bioassay, UV: UV-assay Results given for the same compound on different lines were obtained using samples from different lots.

Another series deals with S. aureus Smith A9537. The series can be described thus: M.I.C. by Tube Dilution, S. aureus Smith A9537. In kind it is cell-based. The note with it: Staphylococcus aureus, 10^-4 dilution, overnight at 37° C.
In the next series the test system is S. aureus Russel. The series can be described thus: M.I.C. by Tube Dilution, S. aureus Russel. In kind it is cell-based. The note with it: Staphylococcus aureus, Nutrient Broth, overnight at 37° C.
The next series relates to S. aureus BX1633 A9606. The series can be described thus: M.I.C. by Tube Dilution, S. aureus BX1633 A9606. It is filed as cell-based. The note with it: Staphylococcus aureus, BX1633A9606, S. aureus BX1633 A9606; Nutrient Broth, overnight at 37° C.
The test system of a further series is Str. pyogenes A9604. The series can be described thus: M.I.C. by Tube Dilution, Str. pyogenes A9604. It is filed as cell-based. The conditions noted are these: Streptococcus pyogenes; Str. pyogenes A9604 + 5% serum; 50% Nutrient Broth - 45% Antibiotic Assay Broth; overnight at 37° C.
In the next series the test system is D. pneumoniae A9585. The series can be described thus: M.I.C. by Tube Dilution, D. pneumoniae A9585. It is filed as cell-based. The conditions noted are these: Streptococcus pneumoniae, A9585, D. pneumoniae A9585 + 5% serum; 50% Nutrient Broth - 45% Antibiotic Assay Broth; overnight at 37° C.
The subject of the next series is Mycobacterium 607. Kind of series: M.I.C. by Tube Dilution, Mycobacterium 607. It is filed as cell-based. The note with it: overnight at 37° C.
The test system of another series is E. coli NIHJ. Kind of series: M.I.C. by Tube Dilution, E. coli NIHJ. It is filed as cell-based. The conditions noted are these: Escherichia coli, overnight at 37° C.
In another series the test system is E. coli ATCC 8739. The series can be described thus: M.I.C. by Tube Dilution, E. coli ATCC 8739. The conditions noted are these: Escherichia coli, ATCC8739, overnight at 37° C. In kind it is cell-based.
For a further series, the system named is E. coli Juhl A15119. Kind of series: M.I.C. by Tube Dilution, E. coli Juhl A15119. In kind it is cell-based. The note with it: Escherichia coli, JUHLA15119, 10^-4 dilution, overnight at 37° C.
The next series deals with K. pneumoniae A9977. The series can be described thus: M.I.C. by Tube Dilution, K. pneumoniae A9977. It is filed as cell-based. The conditions noted are these: Klebsiella pneumoniae, 10^-4 dilution, overnight at 37° C.
The test system of another series is K. pneumoniae A15130. Kind of series: M.I.C. by Tube Dilution, K. pneumoniae A15130. In kind it is cell-based. The note with it: Klebsiella pneumoniae, 10^-4 dilution, overnight at 37° C.
Another series concerns Pr. mirabilis A9900. The series can be described thus: M.I.C. by Tube Dilution, Pr. mirabilis A9900. In kind it is cell-based. The note with it: Proteus mirabilis, 10^-4 dilution, overnight at 37° C.
The next series relates to Pr. morganii A15153. The series can be described thus: M.I.C. by Tube Dilution, Pr. morganii A15153. In kind it is cell-based. The conditions noted are these: Morganella morganii, 10^-4 dilution, overnight at 37° C.
The test system of another series is Sal. enteritidis A9531. Kind of series: M.I.C. by Tube Dilution, Sal. enteritidis A9531. It is filed as cell-based. The note with it: Salmonella enterica, 10^-4 dilution, overnight at 37° C.
The test system of another series is Ser. marcescens A20019. The series can be described thus: M.I.C. by Tube Dilution, Ser. marcescens A20019. In kind it is cell-based. The conditions noted are these: Serratia marcescens, 10^-4 dilution, overnight at 37° C.
In the next series the test system is Ps. aeruginosa A9843. The series can be described thus: M.I.C. by Tube Dilution, Ps. aeruginosa A9843. In kind it is cell-based. The note with it: Pseudomonas aeruginosa, 10^-4 dilution, overnight at 37° C.
In a further series the test system is S. aureus BX-1633. The series can be described thus: Minimum curative dose in infected mice, S. aureus BX-1633. It is filed as in vivo. The conditions noted are these: Staphylococcus aureus, BX1633, sc; subcutaneous, mice infected with lethal dose of S. aureus BX-1633; read-out: CD50 (minimum curative dose for 50% of the mice).
The test system of the next series is E coli Juhl. Kind of series: Minimum curative dose in infected mice, E coli Juhl. It is filed as in vivo. The note with it: Mus musculus, sc; subcutaneous, mice infected with lethal dose of E coli Juhl; read-out: CD50 (minimum curative dose for 50% of the mice).
The nature of another series: Water solubility. In kind it is physicochemical. The conditions noted are these: sodium salt.

Turning to `Cn1nnnc1SCC1=C(C(=O)O)N2C(=O)C(NC(=O)CC3=C(CN)CCCC3)[C@H]2SC1` (stereo partly shown) [Example 3, 7-[(2-aminomethyl-1-cyclohexen-1-yl)acetamido]-3-(1-methyltetrazol-5-ylthiomethyl)-3-cephem-4-carboxylic acid], the “Solubility, UV (UV-assay)” value in [1] (0.1 M phosphate buffer (pH 7.0), 4 hr. at 25° C., UV-assay, listed as BB-S336, 240 min) amounted to 26.0 mg/mL (≈ 54200 µM). Also, in series [1] (0.1 M phosphate buffer (pH 7.0), 4 hr. at 25° C., bioassay, listed as BB-S336, 240 min), the “Solubility, BA (bioassay)” value was found to be 23.0 mg/mL (≈ 48000 µM). Also, the solubility at 4 h in [1] (0.1 M phosphate buffer (pH 7.0), 4 hr. at 25° C., UV-assay, read-out: Solubility, UV (UV-assay)) was 24.6 mg/mL (≈ 51300 µM); in series [1] (0.1 M phosphate buffer (pH 7.0), 4 hr. at 25° C., bioassay, read-out: Solubility, BA (bioassay)), 25.6 mg/mL (≈ 53400 µM); in series [1] (stirred at 25° C. for 4 hours in 0.1 M pH 7.0 phosphate buffer, assayed spectroscopically against its own standard, read-out: Solubility), 23 to 26 mg/mL (≈ 48000 to 54200 µM). In addition, the MIC with S. aureus Smith A9537 (SMITHA9537, S. aureus Smith A9537 + 50% serum) is 0.8 to 1.6 µg/mL; against S. aureus Smith A9537 (SMITHA9537, S. aureus Smith A9537, Nutrient Broth), 0.2 to 0.4 µg/mL (≈ 0.417 to 0.834 µM); against S. aureus Russel, 0.4 to 0.8 µg/mL (≈ 0.834 to 1.67 µM); against S. aureus BX1633 A9606, 1.6 µg/mL (≈ 3.34 µM); in the series with Str. pyogenes A9604, 0.04 to 0.08 µg/mL; with D. pneumoniae A9585 it was 0.04 to 0.08 µg/mL. Also, the MIC against Mycobacterium 607 was more than 100 µg/mL; in the series with E. coli NIHJ it was 1.6 to 3.1 µg/mL (≈ 3.34 to 6.46 µM); in the series with E. coli ATCC 8739, 3.1 to 6.3 µg/mL (≈ 6.46 to 13.1 µM); in the series with E. coli Juhl A15119 it was 3.1 to 6.3 µg/mL (≈ 6.46 to 13.1 µM); in the series with K. pneumoniae A9977, 0.8 to 3.1 µg/mL (≈ 1.67 to 6.46 µM); against K. pneumoniae A15130, 3.1 to 6.3 µg/mL (≈ 6.46 to 13.1 µM). Besides, the MIC is 100 µg/mL (≈ 209 µM) with Pr. mirabilis A9900; more than 100 µg/mL against Pr. morganii A15153; 1.6 to 3.1 µg/mL (≈ 3.34 to 6.46 µM) against Sal. enteritidis A9531; more than 100 µg/mL with Ser. marcescens A20019; more than 100 µg/mL in the series on Ps. aeruginosa A9843. Moreover, the ED50 in the series with S. aureus BX-1633 amounted to 2.4 mg/kg; in the series with E coli Juhl it was 5.4 mg/kg.
On to `Cn1nnnc1SCC1=C(C(=O)O)N2C(=O)C(NC(=O)CC3=C(CN)CCCC3)C2SC1` (stereo not shown) [Example 15], for which, in “Water solubility”, the solubility is more than 250 mg/mL.
